system: not given; experiment: not given; conditions: not given

Row | SMILES | melting point [°C]
1 | Cn1cc(-c2cccc(N3CCc4cc(C5CC5)ccc4C3=O)c2CO)nc(Nc2ccc(C(=O)N3CCCC3)cc2)c1=O [II-10, 6-Cyclopropyl-2-(2-hydroxymethyl-3-{4-methyl-5-oxo-6-[4-(pyrrolidine-1-carbonyl)-phenylamino]-4,5-dihydro-pyrazin-2-yl}-phenyl)-3,4-dihydro-2H-isoquinolin-1-one] | 178 to 180
2 | Cn1cc(-c2cccc(N3CCc4cc(C5CC5)ccc4C3=O)c2CO)nc(Nc2ccc(C(=O)N3CCN(CCO)CC3)cc2)c1=O [II-16, 6-Cyclopropyl-2-[3-(6-{4-[4-(2-hydroxy-ethyl)-piperazine-1-carbonyl]-phenylamino}-4-methyl-5-oxo-4,5-dihydro-pyrazin-2-yl)-2-hydroxymethyl-phenyl]-3,4-dihydro-2H-isoquinolin-1-one] | 175 to 180.1
3 | Cn1cc(-c2cccc(N3CCc4cc(C5(F)CC5)ccc4C3=O)c2CO)nc(Nc2ccc(C(=O)N3CCOCC3)cc2)c1=O [II-11, 6-(1-Fluoro-cyclopropyl)-2-(2-hydroxymethyl-3-{4-methyl-6-[4-(morpholine-4-carbonyl)-phenylamino]-5-oxo-4,5-dihydro-pyrazin-2-yl}-phenyl)-3,4-dihydro-2H-isoquinolin-1-one] | 172 to 174
4 | CN(C)c1ccc2c(c1)CCN(c1cccc(-c3cn(C)c(=O)c(Nc4ccc5c(c4)OC(F)(F)O5)n3)c1CO)C2=O [II-1, 2-{3-[6-(2,2-Difluoro-benzo[1,3]dioxol-5-ylamino)-4-methyl-5-oxo-4,5-dihydro-pyrazin-2-yl]-2-hydroxymethyl-phenyl}-6-dimethylamino-3,4-dihydro-2H-isoquinolin-1-one] | 145 to 150
5 | CN1CCN(C(=O)c2ccc(Nc3nc(-c4cccc(N5CCc6cc(C7CC7)ccc6C5=O)c4CO)cn(C)c3=O)cc2)CC1 [II-14, 6-Cyclopropyl-2-(2-hydroxymethyl-3-{4-methyl-6-[4-(4-methyl-piperazine-1-carbonyl)-phenylamino]-5-oxo-4,5-dihydro-pyrazin-2-yl}-phenyl)-3,4-dihydro-2H-isoquinolin-1-one] | 172 to 175
6 | CC1CN(C(=O)c2ccc(Nc3nc(-c4cccc(N5CCc6cc(C7CC7)ccc6C5=O)c4CO)cn(C)c3=O)cc2)CC(C)O1 (centres unmarked) [II-17, 6-Cyclopropyl-2-(3-{6-[4-(2,6-dimethyl-morpholine-4-carbonyl)-phenylamino]-4-methyl-5-oxo-4,5-dihydro-pyrazin-2-yl}-2-hydroxymethyl-phenyl)-3,4-dihydro-2H-isoquinolin-1-one] | 173 to 175
7 | Cn1cc(-c2cccc(N3CCc4cc(C5CC5)ccc4C3=O)c2CO)nc(Nc2ccc(C(=O)N3CCC(O)CC3)cc2)c1=O [II-12, 6-Cyclopropyl-2-(2-hydroxymethyl-3-{6-[4-(4-hydroxy-piperidine-1-carbonyl)-phenylamino]-4-methyl-5-oxo-4,5-dihydro-pyrazin-2-yl}-phenyl)-3,4-dihydro-2H-isoquinolin-1-one] | 171 to 173
8 | CCN1CCN(C(=O)c2ccc(Nc3nc(-c4cccc(N5CCc6cc(C7CC7)ccc6C5=O)c4CO)cn(C)c3=O)cc2)CC1 [II-20, 6-Cyclopropyl-2-(3-{6-[4-(4-ethyl-piperazine-1-carbonyl)-phenylamino]-4-methyl-5-oxo-4,5-dihydro-pyrazin-2-yl}-2-hydroxymethyl-phenyl)-3,4-dihydro-2H-isoquinolin-1-one] | 153 to 155
9 | CN(CCO)C(=O)c1ccc(Nc2nc(-c3cccc(N4CCc5cc(C6CC6)ccc5C4=O)c3CO)cn(C)c2=O)cc1 [II-15, 4-{6-[3-(6-Cyclopropyl-1-oxo-3,4-dihydro-1H-isoquinolin-2-yl)-2-hydroxymethyl-phenyl]-4-methyl-3-oxo-3,4-dihydro-pyrazin-2-ylamino}-N-(2-hydroxy-ethyl)-N-methyl-benzamide] | 115 to 117
10 | COC1CCN(C(=O)c2ccc(Nc3nc(-c4cccc(N5CCc6cc(C7CC7)ccc6C5=O)c4CO)cn(C)c3=O)cc2)CC1 [II-13, 6-Cyclopropyl-2-(2-hydroxymethyl-3-{6-[4-(4-methoxy-piperidine-1-carbonyl)-phenylamino]-4-methyl-5-oxo-4,5-dihydro-pyrazin-2-yl}-phenyl)-3,4-dihydro-2H-isoquinolin-1-one] | 146 to 148

target: Btk enzyme (His-tagged, full-length) (Homo sapiens (Human), UniProt Q06187); experiment: Bruton's Tyrosine Kinase (Btk) Inhibition Assay; format: biochemical; conditions: 33P filtration capture assay, 100 μM ATP, 30 μM biotinylated peptide substrate
Source text: The assay is a capture of radioactive ^33P phosphorylated product through filtration. The interactions of Btk, biotinylated SH2 peptide substrate (Src homology), and ATP lead to phosphorylation of the peptide substrate. Biotinylated product is bound streptavidin sepharose beads. All bound, radiolabeled products are detected by scintillation counter.
Plates assayed are 96-well polypropylene (Greiner) and 96-well 1.2 μm hydrophilic PVDF filter plates (Millipore). Concentrations reported here are final assay concentrations: 10-100 μM compounds in DMSO (Burdick and Jackson), 5-10 nM Btk enzyme (His-tagged, full-length), 30 μM peptide substrate (Biotin-Aca-AAAEEIYGEI-NH2), 100 μM ATP (Sigma), 8 mM imidazole (Sigma, pH 7.2), 8 mM glycerol-2-phosphate (Sigma), 200 μM EGTA (Roche Diagnostics), 1 mM MnCl2 (Sigma), 20 mM MgCl2 (Sigma), 0.1 mg/ml BSA (Sigma), 2 mM DTT (Sigma), 1 μCi ^33P ATP (Amersham), 20% streptavidin sepharose beads (Amersham), 50 mM EDTA (Gibco), 2 M NaCl (Gibco), 2 M NaCl w/1% phosphoric acid (Gibco), microscint-20 (Perkin Elmer).
IC50 determinations are calculated from 10 data points per compound utilizing data produced from a standard 96-well plate assay template. One control compound and seven unknown inhibitors were tested on each plate and each plate was run twice. Typically, compounds were diluted in half-log starting at 100 μM and ending at 3 nM. The control compound was staurosporine. Background was counted in the absence of peptide substrate. Total activity was determined in the presence of peptide substrate. The following protocol was used to determine Btk inhibition. • 1) Sample preparation: The test compounds were diluted at half-log increments in assay buffer (imidazole, glycerol-2-phosphate, EGTA, MnCl2, MgCl2, BSA). • 2) Bead preparation • a.) rinse beads by centrifuging at 500 g • b.) reconstitute the beads with PBS and EDTA to produce a 20% bead slurry • 3) Pre-incubate reaction mix without substrate (assay buffer, DTT, ATP, ^33P ATP) and mix with substrate (assay buffer, DTT, ATP, ^33P ATP, peptide substrate) 30° C. for 15 mm. • 4) To start assay, pre-incubate 10 μL Btk in enzyme buffer (imidazole, glycerol-2-phosphate, BSA) and 10 μL of test compounds for 10 min at RT. • 5) Add 30 μL reaction mixture without or with substrate to Btk and compounds. • 6) Incubate 50 μL total assay mix for 30 min at 30° C. • 7) Transfer 40 μL of assay to 150 μL bead slurry in filter plate to stop reaction. • 8) Wash filter plate after 30 min, with following steps • a. 3×250 μL NaCl • b. 3×250 μL NaCl containing 1% phosphoric acid • c. […]

Chain of Btk enzyme (His-tagged, full-length) (Q06187 whole entry): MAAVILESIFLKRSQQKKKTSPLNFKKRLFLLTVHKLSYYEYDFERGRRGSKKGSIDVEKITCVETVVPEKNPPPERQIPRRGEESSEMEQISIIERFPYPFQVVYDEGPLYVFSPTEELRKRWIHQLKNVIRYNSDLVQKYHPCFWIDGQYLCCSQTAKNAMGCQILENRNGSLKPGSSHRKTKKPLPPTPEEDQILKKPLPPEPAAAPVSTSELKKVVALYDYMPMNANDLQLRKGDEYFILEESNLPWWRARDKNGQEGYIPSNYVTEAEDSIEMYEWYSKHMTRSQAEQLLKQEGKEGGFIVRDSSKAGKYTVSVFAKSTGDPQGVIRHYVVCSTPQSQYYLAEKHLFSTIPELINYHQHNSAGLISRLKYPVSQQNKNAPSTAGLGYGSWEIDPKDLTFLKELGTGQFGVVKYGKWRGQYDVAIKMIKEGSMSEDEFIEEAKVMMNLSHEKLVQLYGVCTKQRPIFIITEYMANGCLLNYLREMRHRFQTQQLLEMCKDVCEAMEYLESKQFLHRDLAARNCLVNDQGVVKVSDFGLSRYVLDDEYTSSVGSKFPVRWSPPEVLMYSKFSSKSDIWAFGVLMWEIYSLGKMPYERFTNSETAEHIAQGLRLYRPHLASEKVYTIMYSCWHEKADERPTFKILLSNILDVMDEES

Row | SMILES | IC50 [nM]
11 | CN(C)C(=O)c1ccc(Nc2nc(-c3cccc(N4CCc5cc(C6CC6)ccc5C4=O)c3CO)cn(C)c2=O)cc1 [II-6, 4-{6-[3-(6-Cyclopropyl-1-oxo-3,4-dihydro-1H-isoquinolin-2-yl)-2-hydroxymethyl-phenyl]-4-methyl-3-oxo-3,4-dihydro-pyrazin-2-ylamino}-N,N-dimethyl-benzamide] | 15
12 | Cn1cc(-c2cccc(N3CCc4cc(C5(F)CC5)ccc4C3=O)c2CO)nc(Nc2ccc(C(=O)N3CCOCC3)cc2)c1=O [II-11, 6-(1-Fluoro-cyclopropyl)-2-(2-hydroxymethyl-3-{4-methyl-6-[4-(morpholine-4-carbonyl)-phenylamino]-5-oxo-4,5-dihydro-pyrazin-2-yl}-phenyl)-3,4-dihydro-2H-isoquinolin-1-one] | 10
13 | Cn1cc(Nc2nc(-c3cccc(N4CCc5cc(C6CC6)ccc5C4=O)c3CO)cn(C)c2=O)cn1 [II-5, 6-Cyclopropyl-2-{2-hydroxymethyl-3-[4-methyl-6-(1-methyl-1H-pyrazol-4-ylamino)-5-oxo-4,5-dihydro-pyrazin-2-yl]-phenyl}-3,4-dihydro-2H-isoquinolin-1-one] | 16
14 | Cn1cc(-c2cccc(N3CCc4cc(C5CC5)ccc4C3=O)c2CO)nc(Nc2ccc(C(=O)N3CCC(O)CC3)cc2)c1=O [II-12, 6-Cyclopropyl-2-(2-hydroxymethyl-3-{6-[4-(4-hydroxy-piperidine-1-carbonyl)-phenylamino]-4-methyl-5-oxo-4,5-dihydro-pyrazin-2-yl}-phenyl)-3,4-dihydro-2H-isoquinolin-1-one] | 10

— US8536166B2, “Inhibitors of Burton's tyrosine kinase” (Roche Palo Alto LLC, priority 2008, dated 2013)
